For test [1], the target named is T1, recombinant human Meningioma Expressed Antigen 5 (MGEA5), also referred to as O-GlcNAcase (OGA) (Homo sapiens, UniProt O60502).
T1 construct: Full length OGA enzyme was purchased at OriGene (cat #TP322411); purchased OriGene TP322411
T1 sequence (O60502 1-916): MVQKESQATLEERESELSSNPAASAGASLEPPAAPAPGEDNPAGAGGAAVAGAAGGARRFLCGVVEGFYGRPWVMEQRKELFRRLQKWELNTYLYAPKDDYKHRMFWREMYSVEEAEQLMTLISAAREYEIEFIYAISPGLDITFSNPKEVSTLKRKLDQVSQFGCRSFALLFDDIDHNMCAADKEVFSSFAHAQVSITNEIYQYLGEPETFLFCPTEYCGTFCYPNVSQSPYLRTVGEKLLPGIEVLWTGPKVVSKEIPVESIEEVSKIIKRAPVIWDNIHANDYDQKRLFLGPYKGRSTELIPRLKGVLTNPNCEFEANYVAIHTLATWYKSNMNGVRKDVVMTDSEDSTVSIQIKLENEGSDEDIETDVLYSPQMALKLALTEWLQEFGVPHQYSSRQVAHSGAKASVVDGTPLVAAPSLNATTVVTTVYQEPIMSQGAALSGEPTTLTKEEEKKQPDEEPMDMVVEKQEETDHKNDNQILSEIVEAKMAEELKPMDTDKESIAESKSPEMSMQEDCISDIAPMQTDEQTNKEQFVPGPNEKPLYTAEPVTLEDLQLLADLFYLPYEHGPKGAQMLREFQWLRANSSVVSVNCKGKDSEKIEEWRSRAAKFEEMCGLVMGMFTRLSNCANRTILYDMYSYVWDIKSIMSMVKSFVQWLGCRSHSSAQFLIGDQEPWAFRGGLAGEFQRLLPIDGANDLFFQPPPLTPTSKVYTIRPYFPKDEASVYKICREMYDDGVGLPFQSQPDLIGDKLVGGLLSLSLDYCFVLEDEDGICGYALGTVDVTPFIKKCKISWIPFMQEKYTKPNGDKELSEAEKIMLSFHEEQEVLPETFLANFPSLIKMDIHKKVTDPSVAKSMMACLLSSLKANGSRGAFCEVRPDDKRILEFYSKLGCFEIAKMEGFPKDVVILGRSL
The test is described as follows: OGA biochemical assay (inhibition of FM-GlcNAc hydrolysis, fluorescence). The settings on record: full length OGA 2 nM, FM-GlcNAc 100 uM; for IC50: pH 7.2, 6 h at room temperature, read-out: Enzymatic hOGA, pIC50 (converted); for Emax: relative to high and low controls, read-out: Enzymatic Emax (%). The source says: The assay is based on the inhibition of the hydrolysis of fluorescein mono-β-D-N-Acetyl-Glucosamine (FM-GlcNAc) (Mariappa et al. 2015, Biochem J 470:255) by the recombinant human Meningioma Expressed Antigen 5 (MGEA5), also referred to as O-GlcNAcase (OGA). The hydrolysis FM-GlcNAc (Marker Gene technologies, cat #M1485) results in the formation of […] and fluorescein. The fluorescence of the latter can be measured at excitation wavelength 485 nm and emission wavelength 538 nm. An increase in enzyme activity results in an increase in fluorescence signal. Full length OGA enzyme was purchased at OriGene (cat #TP322411). The enzyme was stored in 25 mM Tris.HCl, pH 7.3, 100 mM glycine, 10% glycerol at −20° C. Thiamet G and GlcNAcStatin were tested as reference compounds (Yuzwa et al. 2008 Nature Chemical Biology 4:483; Yuzwa et al. 2012 Nature Chemical Biology 8:393). The assay was performed in 200 mM Citrate/phosphate buffer supplemented with 0.005% Tween-20. 35.6 g Na2HPO4 2 H2O (Sigma, #C0759) were dissolved in 1 L water to obtain a 200 mM solution. 19.2 g citric acid (Merck, #1.06580) was dissolved in 1 L water to obtain a 100 mM solution. pH of the sodiumphosphate solution was adjusted with the citric acid solution to 7.2. The buffer to stop the reaction consists of a 500 mM Carbonate buffer, pH 11.0. 734 mg FM-GlcNAc were dissolved in 5.48 mL DMSO to obtain a 250 mM solution and was stored at −20° C. OGA was used at a 2 nM concentration and FM-GlcNAc at a 100 uM final concentration. Dilutions were prepared in assay buffer.
50 nl of a compound dissolved in DMSO was dispensed on Black Proxiplate TM 384 Plus Assay plates (Perkin Elmer, #6008269) and 3 μl fl-OGA enzyme mix added subsequently. Plates were pre-incubated for 60 min at room temperature and then 2 μl FM-GlcNAc substrate mix added. […] Plates were briefly centrifuged for 1 min at 1000 rpm and incubate at room temperature for 6 h. To stop the reaction 5 μl STOP buffer were added and plates centrifuge again 1 min at 1000 rpm. Fluorescence was quantified in the Thermo Scientific Fluoroskan Ascent or the PerkinElmer EnVision with excitation wavelength 485 nm and emission wavelength 538 nm.
For analysis a best-fit curve is fitted by a minimum sum of squares method. From this an IC50 value and Hill coefficient was obtained. High control (no inhibitor) and low control (saturating concentrations of standard inhibitor) were used to define the minimum and maximum values.

The next test deals with T2, hOGA (Homo sapiens, UniProt O60502).
T2 construct: HEK293 cells inducible for P301L mutant human Tau (isoform 2N4R) were established at Janssen; endogenous in cells; host or cells: HEK293 cells inducible for P301L mutant human Tau (2N4R)
T2 sequence (O60502 1-916): T1 sequence (O60502 1-916)
Kind of test: OGA cellular assay (ICC detection of O-GlcNAcylated proteins in HEK293 cells inducible for P301L mutant human Tau). In kind it is cell-based. The following applies: for EC50: HEK293 cells inducible for P301L mutant human Tau (2N4R), 6 hours incubation, O-GlcNAcylation readout at 488 nm, read-out: Cellular hOGA, pEC50 (converted); for Emax: HEK293 cells inducible for P301L mutant human Tau, maximum defined by Thiamet G at 200 uM. As for the experimental part:
HEK293 cells inducible for P301L mutant human Tau (isoform 2N4R) were established at Janssen. Thiamet-G was used for both plate validation (high control) and as reference compound (reference EC50 assay validation). OGA inhibition is evaluated through the immunocytochemical (ICC) detection of O-GlcNAcylated proteins by the use of a monoclonal antibody (CTD110.6; Cell Signaling, #9875) detecting 0-GlcNAcylated residues as previously described (Dorfmueller et al. 2010 Chemistry & biology, 17:1250). Inhibition of OGA will result in an increase of O-GlcNAcylated protein levels resulting in an increased signal in the experiment. Cell nuclei are stained with Hoechst to give a cell culture quality control and a rough estimate of immediate compounds toxicity, if any. ICC pictures are imaged with a Perkin Elmer Opera Phenix plate microscope and quantified with the provided software Perkin Elmer Harmony 4.1.
Cells were propagated in DMEM high Glucose (Sigma, #D5796) following standard procedures. 2 days before the cell assay cells are split, counted and seeded in Poly-D-Lysine (PDL) coated 96-wells (Greiner, #655946) plate at a cell density of 12,000 cells per cm^2 (4,000 cells per well) in 100 μl of Assay Medium (Low Glucose medium is used to reduce basal levels of GlcNAcylation) (Park et al. 2014 The Journal of biological chemistry 289:13519). At the day of compound test medium from assay plates was removed and replenished with 90[d of fresh Assay Medium. 10 μl of compounds at a 10 fold final concentration were added to the wells. Plates were centrifuged shortly before incubation in the cell incubator for 6 hours. DMSO concentration was set to 0.2%. Medium is discarded by applying vacuum. For staining of cells medium was removed and cells washed once with 100 μl D-PBS (Sigma, #D8537). From next step onwards unless other stated assay volume was always 50 μl and incubation was performed without agitation and at room temperature. Cells were fixed in 50 μl of a 4% paraformaldehyde (PFA, Alpha aesar, #043368) PBS solution for 15 minutes at room temperature. […] Before analysis samples were washed 2 times manually for 5 minutes in ICC base buffer.
Imaging is performed using Perkin Elmer Phenix Opera using a water 20× objective and recording 9 fields per well. Intensity readout at 488 nm is used as a measure of O-GlcNAcylation level of total proteins in wells. To assess potential toxicity of compounds nuclei were counted using the Hoechst staining. IC50-values are calculated using parametric non-linear regression model fitting. As a maximum inhibition Thiamet G at a 200 uM concentration is present on each plate. In addition, a concentration response of Thiamet G is calculated on each plate.

The term Emax denotes the size of the effect at its maximum, as opposed to the concentration needed. For `Cc1cc(C(F)(F)F)cc(C)c1Nc1nncc2c1ccn2CC(=O)N(C)C` [Co. No. 1], in test [1], the IC50 is 15.1 nM and the Emax came to 101%. Moreover, on hOGA, the EC50 was 24 nM and the maximum response (Emax) was 68%.

Regarding `Cc1ccnc(C(C)C)c1Nc1nncc2c1ccn2CC(=O)N(C)C` [Co. No. 2], in test [1], the IC50 was 21.4 nM and the Emax was 98%. Moreover, on hOGA, the EC50 is 138 nM and the maximal effect (Emax) turned out to be 138%.

Regarding `Cc1cc(OC(F)(F)F)cc(Cl)c1Nc1nncc2c1ccn2CC(=O)N(C)C` [Co. No. 3], in test [1], the IC50 was 6.31 nM and the maximal response (Emax) came out at 101%. Besides, on hOGA, the EC50 was 15.8 nM and the Emax worked out at 108%.

Take `Cc1cc(Cl)cc(C(F)(F)F)c1Nc1nncc2c1ccn2CC(=O)N(C)C` [Co. No. 4]: in test [1], the IC50 is 19.1 nM and the Emax was 100%. Also, at hOGA, the EC50 was 74.1 nM and the maximal effect (Emax) turned out to be 63%.

For `Cc1cc(C)c(Nc2nncc3c2ccn3CC(=O)N(C)C)c(C)c1` [Co. No. 5], in test [1], the IC50 was 4.27 nM and the Emax was determined as 99%. At hOGA, the EC50 was 21.4 nM and the maximal response (Emax) was 92%.

Values taken from US20230058733A1, “OGA INHIBITOR COMPOUNDS” (JANSSEN PHARMACEUTICA NV, priority 2019, published 2023).
